Test results: PubChem BioAssay AID212 (DTP/NCI, 2004)
Values joined by “and” are separate entries in the source; they are usually repeats but may differ in a detail not shown here. Identical values can stand only once. Results filed as inconclusive are left out.

Tested on: BDF1 mice, colon carcinoma 38 sc, T/C %
Test: NCI In Vivo Anticancer Drug Screen. Data for tumor model Colon Carcinoma 38 (subcutaneous) in B6D2F1 (BDF1) mice
Details: endpoint: median tumor weight (est.), higher = larger tumour
Outline: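 Compound antitumor activity was assessed in mice carrying transplantable tumors. Survival or tumor size was recorded, and each value is the treated-group measurement divided by that of the vehicle-treated control group.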

[1] = dose: 12.5 mg/kg/injection, schedule: Q07DX003 (ip), vehicle: Klucel (hydroxypropylcellulose) (HPC)
[2] = dose: 50.0 mg/kg/injection, schedule: Q07DX003 (ip), vehicle: Klucel (hydroxypropylcellulose) (HPC)
[3] = dose: 100.0 mg/kg/injection, schedule: Q07DX003 (ip), vehicle: Klucel (hydroxypropylcellulose) (HPC)
[4] = dose: 200.0 mg/kg/injection, schedule: Q07DX003 (ip), vehicle: Klucel (hydroxypropylcellulose) (HPC)
[5] = dose: 200.0 mg/kg/injection, schedule: Q07DX002 (ip), vehicle: Klucel (hydroxypropylcellulose) (HPC)
[6] = dose: 50.0 mg/kg/injection, schedule: Q07DX002 (ip), vehicle: saline with Tween-80
[7] = dose: 400.0 mg/kg/injection, schedule: Q07DX002 (ip), vehicle: saline with Tween-80

## CNc1nc(NC)nc(NC)n1
[1]
  T/C: 105 % of control
[2]
  T/C: 111 % of control
[3]
  T/C: 109 % of control
[4]
  T/C: 86 % of control

## CC1C=NNC1=O (stereo unspecified)
dose: 50.0 mg/kg/injection, schedule: Q07DX002 (ip), vehicle: Klucel (hydroxypropylcellulose) (HPC)
  T/C: 84 % of control
dose: 100.0 mg/kg/injection, schedule: Q07DX002 (ip), vehicle: Klucel (hydroxypropylcellulose) (HPC)
  T/C: 91 % of control and 96 % of control
[5]
  T/C: 97 % of control and 98 % of control
dose: 400.0 mg/kg/injection, schedule: Q07DX002 (ip), vehicle: Klucel (hydroxypropylcellulose) (HPC)
  T/C: 76 % of control

## O=C1OCC2(C(=O)O)C(=O)OCC12 (stereo unspecified)
dose: 3.12 mg/kg/injection, schedule: Q07DX002 (ip), vehicle: saline with Tween-80
  T/C: 124 % of control
dose: 6.25 mg/kg/injection, schedule: Q07DX002 (ip), vehicle: saline with Tween-80
  T/C: 87 % of control
dose: 25.0 mg/kg/injection, schedule: Q07DX002 (ip), vehicle: saline with Tween-80
  T/C: 70 % of control and 86 % of control
[6]
  T/C: 109 % of control
[7]
  T/C: 158 % of control

## CSC(SC)=C1C(=O)NC(=O)NC1=O
dose: 6.25 mg/kg/injection, schedule: Q07DX002 (ip), vehicle: saline
  T/C: 85 % of control
dose: 12.5 mg/kg/injection, schedule: Q07DX002 (ip), vehicle: saline
  T/C: 70 % of control
dose: 25.0 mg/kg/injection, schedule: Q07DX002 (ip), vehicle: saline
  T/C: 83 % of control
dose: 50.0 mg/kg/injection, schedule: Q07DX002 (ip), vehicle: saline
  T/C: 45 % of control

## CCC1OCC(C(Cl)CCl)O1 (stereo unspecified)
dose: 12.5 mg/kg/injection, schedule: Q07DX002 (ip), vehicle: Klucel (hydroxypropylcellulose) (HPC)
  T/C: 101 % of control
[1]
  T/C: 82 % of control
dose: 25.0 mg/kg/injection, schedule: Q07DX002 (ip), vehicle: Klucel (hydroxypropylcellulose) (HPC)
  T/C: 95 % of control and 96 % of control
dose: 25.0 mg/kg/injection, schedule: Q07DX003 (ip), vehicle: Klucel (hydroxypropylcellulose) (HPC)
  T/C: 96 % of control
[2]
  T/C: 92 % of control
[3]
  T/C: 69 % of control
[5]
  T/C: 203 % of control
[4]
  T/C: 67 % of control
dose: 400.0 mg/kg/injection, schedule: Q07DX003 (ip), vehicle: Klucel (hydroxypropylcellulose) (HPC)
  T/C: 39 % of control

## CC(=O)OC1C2OC3C=C(C)CCC3(CO)C(C)(C1OC(C)=O)C21CO1 (stereo unspecified)
dose: 0.5 mg/kg/injection, schedule: Q07DX003 (ip), vehicle: saline
  T/C: 50 % of control and 61 % of control
dose: 1.0 mg/kg/injection, schedule: Q07DX003 (ip), vehicle: saline
  T/C: 87 % of control and 101 % of control
dose: 2.0 mg/kg/injection, schedule: Q07DX003 (ip), vehicle: saline
  T/C: 111 % of control and 117 % of control
dose: 2.5 mg/kg/injection, schedule: Q01DX001 (ip), vehicle: saline
  T/C: 266 % of control
dose: 4.0 mg/kg/injection, schedule: Q07DX003 (ip), vehicle: saline
  T/C: 69 % of control and 75 % of control
dose: 5.0 mg/kg/injection, schedule: Q01DX001 (ip), vehicle: saline
  T/C: 231 % of control
dose: 10.0 mg/kg/injection, schedule: Q01DX001 (ip), vehicle: saline
  T/C: 173 % of control

## Cc1oc2c(C)c3oc(=O)cc(C)c3cc2c1CCl
dose: 12.5 mg/kg/injection, schedule: Q07DX002 (ip), vehicle: saline with Tween-80
  T/C: 77 % of control and 89 % of control
[6]
  T/C: 74 % of control and 77 % of control
dose: 200.0 mg/kg/injection, schedule: Q07DX002 (ip), vehicle: saline with Tween-80
  T/C: 53 % of control
[7]
  T/C: 94 % of control

## NC(=O)/C=C/c1c[nH]c2nccnc12
dose: 6.25 mg/kg/injection, schedule: Q07DX002 (ip), vehicle: water
  T/C: 59 % of control
dose: 12.5 mg/kg/injection, schedule: Q07DX002 (ip), vehicle: water
  T/C: 97 % of control
dose: 25.0 mg/kg/injection, schedule: Q07DX002 (ip), vehicle: water
  T/C: 116 % of control
dose: 100.0 mg/kg/injection, schedule: Q07DX002 (ip), vehicle: water
  T/C: 94 % of control
